Assay results published in ChEMBL document CHEMBL2384945, “Discovery of RG7112: A Small-Molecule MDM2 Inhibitor in Clinical Development” (ACS Med Chem Lett, 2013).

Experiments:
[1] = tested on: SW480; test: cells; conditions: Homo sapiens, SW480, 120 h
Description: Cytotoxicity against human SW480 cells expressing p53 mutant assessed as cell viability after 5 days by MTT assay

[2] = tested on: MDA-MB-435; test: cells; conditions: Homo sapiens, MDA-MB-435, 120 h
Description: Cytotoxicity against human MDA-MB-435 cells expressing p53 mutant assessed as cell viability after 5 days by MTT assay

[3] = tested on: RKO; test: cells; conditions: Homo sapiens, 120 h
Description: Cytotoxicity against human RKO cells expressing wild type p53 assessed as cell viability after 5 days by MTT assay

[4] = tested on: SJSA-1; test: cells; conditions: Homo sapiens, SJSA-1, 120 h
Description: Cytotoxicity against human SJSA1 cells expressing wild type p53 assessed as cell viability after 5 days by MTT assay

[5] = tested on: HCT-116; test: cells; conditions: Homo sapiens, HCT-116, 120 h
Description: Cytotoxicity against human HCT116 cells expressing wild type p53 assessed as cell viability after 5 days by MTT assay

[6] = Apparent half life in mouse at 50 mg/kg, po; assay type: ADME, organism-based; design: dose 50 mg/kg, route oral; conditions: in vivo, read-out: t1/2(app) (converted)
[7] = AUClast in mouse at 50 mg/kg, po; assay type: ADME, organism-based; design: time 0 - last, dose 50 mg/kg, route oral; conditions: plasma
[8] = Cmax in mouse at 50 mg/kg, po; assay type: ADME, organism-based; design: dose 50 mg/kg, route oral; conditions: in vivo
[9] = AUClast in mouse at 100 mg/kg, po; assay type: ADME, organism-based; design: time 0 - last, dose 100 mg/kg, route oral; conditions: plasma
[10] = Cmax in mouse at 100 mg/kg, po; assay type: ADME, organism-based; design: dose 100 mg/kg, route oral; conditions: in vivo
[11] = Apparent half life in mouse at 100 mg/kg, po; assay type: ADME, organism-based; design: dose 100 mg/kg, route oral; conditions: in vivo, read-out: t1/2(app) (converted)
[12] = Antitumor activity against human MHM cells xenografted in po dosed mouse relative to nutlin-3a; assay type: functional
[13] = tested on: SJSA-1; test: animal or person; conditions: Mus musculus, SJSA-1, po, read-out: TGI
Description: Antitumor activity against human SJSA1 cells xenografted in nude mouse assessed as tumor growth inhibition at 50 mg/kg, po relative to control

| Structure (SMILES) | IC50 [1] | IC50 [2] | IC50 [3] | IC50 [4] | IC50 [5] | half-life [6] | AUC(0-t) [7] | Cmax [8] | AUC(0-t) [9] | Cmax [10] | half-life [11] | fold change (FC) [12] | inhibition in vivo at 50 mg/kg [13] |
| --- | --- | --- | --- | --- | --- | --- | --- | --- | --- | --- | --- | --- | --- |
| CCOc1cc(C(C)(C)C)ccc1C1=N[C@@](CC)(c2ccc(Cl)cc2)[C@@](CC)(c2ccc(Cl)cc2)N1C(=O)N1CCN(CCCS(C)(=O)=O)CC1 | 24.6 µM | 28.2 µM | 12.5 µM | > 30 µM | 13.7 µM |  |  |  |  |  |  |  |  |
| CCOc1cc(C(C)(C)C)ccc1C1=N[C@@](C)(c2ccc(Cl)cc2)[C@@](C)(c2ccc(Cl)cc2)N1C(=O)N1CCN(CCNC(C)=O)CC1 | 11 µM | 10.5 µM | 0.3 µM | 0.1 µM | 0.5 µM | 2.3 h | 136000 ng·h/mL | 12000 ng/mL |  |  |  |  |  |
| CCOc1cc(C(C)(C)C)ccc1C1=N[C@@](C)(c2ccc(Cl)cc2)[C@@](C)(c2ccc(Cl)cc2)N1C(=O)N1CCCCC1 | 23.1 µM | 24.9 µM | 6.8 µM | 7.3 µM | 10.7 µM |  |  |  |  |  |  |  |  |
| COc1ccc(C2=N[C@@H](c3ccc(Cl)cc3)[C@@H](c3ccc(Cl)cc3)N2C(=O)N2CCNC(=O)C2)c(OC(C)C)c1 [NUTLIN-3] |  |  | 1.5 µM | 1.5 µM | 1.5 µM |  |  |  | 65000 ng·h/mL | 12100 ng/mL | 2.6 h |  |  |
| CCOc1cc(C(C)(C)C)ccc1C1=N[C@@](C)(c2ccc(Cl)cc2)[C@@](C)(c2ccc(Cl)cc2)N1C(=O)N1CCN(CCCS(C)(=O)=O)CC1 [RO-5045337] | 16.6 µM | 9.9 µM | 0.4 µM | 0.3 µM | 0.5 µM | 8.8 h | 251000 ng·h/mL | 15500 ng/mL |  |  |  | 4 | 74% |
| CCOc1cc(C(C)(C)C)ccc1C1=N[C@@](C)(c2ccc(Cl)cc2)[C@@](C)(c2ccc(Cl)cc2)N1C(=O)N1CCNC(=O)C1 | > 30 µM | > 30 µM | 23.7 µM | 7.6 µM | 16.4 µM |  |  |  |  |  |  |  |  |
| CCOc1cc(C(C)(C)C)ccc1C1=N[C@@](C)(c2ccc(Cl)cc2)[C@@](C)(c2ccc(Cl)cc2)N1C(=O)N1CCN(CCC(F)(F)F)CC1 | 5 µM | 29.3 µM | 0.4 µM | 2.5 µM | 1.3 µM |  |  |  |  |  |  |  |  |
| CCOc1cc(C(C)(C)C)ccc1C1=N[C@@](C)(c2ccc(Cl)cc2)[C@@](C)(c2ccc(Cl)cc2)N1C(=O)N1CCN(CCNS(C)(=O)=O)CC1 | 9.1 µM | 7.3 µM | 0.3 µM | 0.2 µM | 0.9 µM |  |  |  |  |  |  |  |  |
| CCOc1cc(C(C)(C)C)ccc1C1=N[C@@](C)(c2ccc(Cl)cc2)[C@@](C)(c2ccc(Cl)cc2)N1C(=O)N1CCN(CC(=O)N2CCOCC2)CC1 | 14.4 µM | 17.5 µM | 0.6 µM | 0.2 µM | 0.6 µM |  |  |  |  |  |  |  |  |
| CCOc1cc(C(C)(C)C)ccc1C1=N[C@@](C)(c2ccc(Cl)cc2)[C@@](C)(c2ccc(Cl)cc2)N1C(=O)N1CCN(CCO)CC1 | 12.3 µM | 9.6 µM | 0.3 µM | 0.2 µM | 0.8 µM |  |  |  |  |  |  |  |  |
| CCOc1cc(C(C)(C)C)ccc1C1=N[C@@](C)(c2ccc(Cl)cc2)[C@@](C)(c2ccc(Cl)cc2)N1C(=O)N1CCN(CC(=O)N2CCCC2)CC1 | 14.4 µM | 9.5 µM | 0.5 µM | 0.3 µM | 0.7 µM | 4.7 h | 8300 ng·h/mL | 2300 ng/mL |  |  |  |  |  |
| CCOc1cc(C(C)(C)C)ccc1C1=N[C@@](C)(c2ccc(Cl)cc2)[C@@](C)(c2ccc(Cl)cc2)N1C(=O)N1CCN(C(C)=O)CC1 | 17.8 µM | 14.9 µM | 0.5 µM | 0.3 µM | 0.6 µM | 2.4 h | 64900 ng·h/mL | 19600 ng/mL |  |  |  |  |  |
| CCOc1cc(C(C)(C)C)ccc1C1=N[C@@](C)(c2ccc(Cl)cc2)[C@@H](c2ccc(Cl)cc2)N1C(=O)N1CCN(CCCS(C)(=O)=O)CC1 | > 30 µM | > 30 µM | > 30 µM | 12.4 µM | 14.4 µM |  |  |  |  |  |  |  |  |
| CCOc1cc(C(C)(C)C)ccc1C1=N[C@@](C)(c2ccc(Cl)cc2)[C@@](C)(c2ccc(Cl)cc2)N1C(=O)N1CCNCC1 | 2.7 µM | 4.2 µM | 0.5 µM | 0.6 µM | 1.2 µM |  |  |  |  |  |  |  |  |
